In paper PMC4824452, “Substrate complexes of human dipeptidyl peptidase III reveal the mechanism of enzyme inhibition” (Scientific Reports, 2016):
Positions count from the first letter of the chain named.

Assays:
inactive hDPP3 variant = biological target: inactive hDPP3 variant; set-up: method as in PMID 22493238; conditions: cited from earlier work
hDPP III [1] = test system: hDPP III; set-up: method as in 2 sources, ref 22 = [22]; PMID 10822105; doi:10.1016/s0196-9781(00)00174-1; Yamamoto Y. , Hashimoto J. , Shimamura M. , Yamaguchi T. & Hazato T. Characterization of tynorphin, a potent endogenous inhibitor of dipeptidyl peptidaseIII . Peptides 21 , 503 – 508 ( 2000 ). 1082210 ||| ref 1 = [1]; PMID 21794094; doi:10.1111/j.1742-4658.2011.08275.x; Prajapati S. C. & Chauhan S. S. Dipeptidyl peptidase III: a multifaceted oligopeptide N-end cutter . FEBS J. 278 , 3256 – 3276 ( 2011 ). 21794094 10.1111/j.1742-4658.2011.08275.x; conditions: cited from earlier work
[2] = biological target: T1, hDPP III, wild-type enzyme (Homo sapiens, UniProt Q9NY33); experiment: Fluorometric activity assay, release of β-naphthylamine, wild-type enzyme; format: biochemical; conditions: wild-type enzyme 20 pM; substrate 1 μM to 200 μM; 37 °C, 50 mM Tris-HCl pH 8.0, 100 mM NaCl; fluorescence ex 320 nm, em 420 nm
T1 sequence (Q9NY33 1-737): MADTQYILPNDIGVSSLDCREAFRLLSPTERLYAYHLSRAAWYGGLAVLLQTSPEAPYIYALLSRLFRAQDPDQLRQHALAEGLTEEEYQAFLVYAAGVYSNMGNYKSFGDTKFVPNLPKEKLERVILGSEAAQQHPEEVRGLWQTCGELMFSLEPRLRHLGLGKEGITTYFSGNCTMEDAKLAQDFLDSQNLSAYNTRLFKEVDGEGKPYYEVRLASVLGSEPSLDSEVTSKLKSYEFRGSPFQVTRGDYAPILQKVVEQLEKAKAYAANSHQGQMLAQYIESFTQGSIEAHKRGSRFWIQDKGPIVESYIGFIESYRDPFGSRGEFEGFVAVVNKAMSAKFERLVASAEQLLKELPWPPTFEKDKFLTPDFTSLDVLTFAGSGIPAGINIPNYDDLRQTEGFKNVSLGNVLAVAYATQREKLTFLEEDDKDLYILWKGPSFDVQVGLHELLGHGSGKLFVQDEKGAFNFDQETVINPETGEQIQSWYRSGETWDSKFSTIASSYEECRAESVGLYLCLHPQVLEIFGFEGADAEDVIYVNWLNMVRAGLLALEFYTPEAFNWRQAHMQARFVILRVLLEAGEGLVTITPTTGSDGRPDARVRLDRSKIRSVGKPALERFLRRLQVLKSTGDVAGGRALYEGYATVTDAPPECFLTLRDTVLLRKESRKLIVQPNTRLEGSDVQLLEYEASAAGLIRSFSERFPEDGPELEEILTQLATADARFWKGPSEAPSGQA
Protocol: (§1) The enzymatic activities of the wild-type enzyme and the active smFRET construct (still containing residue Glu-451) were determined using a fluorometric assay, which measures the release of β-naphthylamine upon cleavage of the synthetic substrate Arg-Arg-β-naphthylamide (excitation at 320 nm and emission at 420 nm)[41]. Kinetic parameters were determined at 37 °C in 50mM Tris-HCl buffer pH 8.0, containing 100 mM NaCl. The protein concentrations were 20 pM (wild-type enzyme) and 50 pM (smFRET construct). The substrate concentration was varied from 1 μM to 200 μM. The initial rate of fluorescence increase was monitored continuously for 5 min and was converted into the velocity of the reaction using a calibration curve for β-naphthylamine. Non-linear regression using the program GraphPad Prism (www.graphpad.com) yielded the values for vmax and KM.

[3] = biological target: T2, active smFRET construct of hDPP III (still containing residue Glu-451) (Homo sapiens, UniProt Q9NY33, C19S/C519S/C654S/E207C/S491C); experiment: Fluorometric activity assay, release of β-naphthylamine, active smFRET construct; format: biochemical; conditions: active smFRET construct 50 pM; substrate 1 μM to 200 μM; 37 °C, 50 mM Tris-HCl pH 8.0, 100 mM NaCl; fluorescence ex 320 nm, em 420 nm
T2 construct: His6-tag with TEV protease cleavage site (N, cleaved yes); made in house; host or cells: E. coli BL21-CodonPlus (DE3) RIL
T2 sequence (Q9NY33 1-726 C19S/E207C/S491C/C519S/C654S limits assumed): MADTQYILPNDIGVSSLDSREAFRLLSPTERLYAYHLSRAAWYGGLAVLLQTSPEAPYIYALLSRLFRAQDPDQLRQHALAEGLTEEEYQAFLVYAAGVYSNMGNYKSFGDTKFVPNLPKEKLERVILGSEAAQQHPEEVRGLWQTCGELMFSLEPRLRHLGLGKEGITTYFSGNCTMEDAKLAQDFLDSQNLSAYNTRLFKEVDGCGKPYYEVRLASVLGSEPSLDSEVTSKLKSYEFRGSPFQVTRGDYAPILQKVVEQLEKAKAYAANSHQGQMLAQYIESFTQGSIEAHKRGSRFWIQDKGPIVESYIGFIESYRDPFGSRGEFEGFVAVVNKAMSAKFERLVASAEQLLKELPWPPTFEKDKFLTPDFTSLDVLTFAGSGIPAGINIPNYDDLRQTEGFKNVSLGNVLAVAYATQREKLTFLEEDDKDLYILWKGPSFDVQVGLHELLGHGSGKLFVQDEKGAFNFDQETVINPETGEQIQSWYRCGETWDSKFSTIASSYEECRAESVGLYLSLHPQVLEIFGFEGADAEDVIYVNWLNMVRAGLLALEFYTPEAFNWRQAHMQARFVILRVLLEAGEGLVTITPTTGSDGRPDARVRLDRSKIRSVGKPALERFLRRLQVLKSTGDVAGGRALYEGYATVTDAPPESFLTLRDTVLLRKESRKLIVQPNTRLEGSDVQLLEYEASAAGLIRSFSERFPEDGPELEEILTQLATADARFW
Protocol: as §1

hDPP III [4] = conditions: cited from earlier work
Description: The octapeptide angiotensin-II (DRVYIHPF) is a potent vasoconstrictor and is involved in regulating mammalian blood pressure.

[5] = test system: partially purified DPP III from monkey brain; set-up: method as in PMID 10822105; conditions: cited from earlier work
human DPP III = conditions: cited from earlier work
rat DPP III = test system: rat DPP III; set-up: method as in PMID 12895665; conditions: cited from earlier work
[6] = biological target: hDPP3(1-726) E451A, inactive hDPP III variant used for ITC (human) (UniProt Q9NY33); experiment: ITC; 800 μM angiotensin II in the syringe into 40 μM enzyme in the cell; 25 °C; 50 mM Tris-HCl pH 8.0, 100 mM NaCl; one-binding-site model
[7] = biological target: T3, human dipeptidyl peptidase III (1-726), inactive E451A variant, smFRET construct (C19S, C519S, C654S, E207C, … (human, UniProt Q9NY33 1-726, E451A | C19 exchanged to serine | C519 exchanged to serine | C654 exchanged to …)); experiment: crystal structure; co-crystallisation; protein 8 mg mL^-1, protein:ligand about 1:30, sitting drop vapour diffusion at 20 °C, microseeding with crystals of the angiotensin II complex; conditions: both partners purified
T3 construct: human dipeptidyl peptidase III, residues 1-726 (lacks 11 C-terminal residues), with E451A and five surface exchanges made for smFRET; Vector pET28-MHL; His6-tag removed with TEV protease, so residues of the cleavage site may remain at the N-terminus; also called hDPP III; hDPP3; source: E. coli BL21-CodonPlus (DE3) RIL, purified (Ni-NTA, ResourceQ anion exchange, TEV cleavage, Superdex 200); not …
T3 sequence (looked up): T2 sequence (Q9NY33 1-726 C19S/E207C/S491C/C519S/C654S limits assumed) with E451A

Molecule: YGGFL [Leu-enkephalin, endogenous opioid neurotransmitter (YGGFL)]
- Kd (inactive hDPP3 variant): 3600 nM
- cleavage by hDPP III (in words) (hDPP III [1]): shown to be cleaved by hDPP III
- in vitro substrate of hDPP III (in words) (hDPP III [1]): known in vitro substrates of hDPP III

Molecule: YGGFM [Met-enkephalin, endogenous opioid neurotransmitter (YGGFM)]
- cleavage by hDPP III (in words) (hDPP III [1]): shown to be cleaved by hDPP III
- in vitro substrate of hDPP III (in words) (hDPP III [1]): known in vitro substrates of hDPP III

Molecule: Arg-Arg-β-naphthylamide [synthetic substrate releasing β-naphthylamine upon cleavage]
- Km [2]: 24 µM
- kcat [2]: 24 s⁻¹
- Km [3]: 30 µM
- kcat [3]: 28 s⁻¹

Molecule: VVYPW [tynorphin]
- period over which the peptide appears to be hydrolysed (hDPP III [1]): about 24 hours
- character of binding (thermodynamic, in words) (hDPP III [4]): endothermic process driven by entropic changes
- inhibition (in words) [5]: shown to inhibit partially purified DPP III from monkey brain
- inhibition of human DPP III (in words) (human DPP III): described as an inhibitor of human DPP III

Molecule: YPFF-NH2 [endomorphin-2, opioid peptide with amidated C-terminus]
- in vitro substrate of hDPP III (in words) (hDPP III [1]): known in vitro substrates of hDPP III

Molecule: IVYPW
- inhibition of the enzyme (in words) (human DPP III): described as an inhibitor of the enzyme
- relative inhibitory strength (in words) (rat DPP III; compared with tynorphin, presumably ref 23): a stronger inhibitor than tynorphin
- inhibition (in words) (rat DPP III; rat DPP III): nanomolar affinity

Molecule: angiotensin-II (peptide)
- Kd [6]: 1640 nM
- dH [6]: 3.64 kcal/mol

B1: Met-enkephalin (peptide)
peptide: YGGFM
notes: Met-enkephalin, endogenous opioid pentapeptide cut from proenkephalin-A; also called YGGFM
- binding result [7]: binds

B2: Leu-enkephalin (peptide)
peptide: YGGFL
notes: Leu-enkephalin, endogenous opioid pentapeptide cut from proenkephalin-A (also held in prodynorphin); also called YGGFL
- binding result [7]: binds

B3: synthetic opioid peptide IVYPW (peptide)
peptide: IVYPW
notes: synthetic opioid peptide, similar to tynorphin (VVYPW), a derivative of spinorphin
- binding result [7]: binds
